From patent EP3623369A1, “NOVEL MORPHOLINYL AMINE COMPOUNDS FOR THE TREATMENT OF AUTOIMMUNE DISEASE” (F. Hoffmann-La Roche AG, priority 2018, dated 2020) come the findings set out here.

The experiment addresses T1, hTLR9 (Homo sapiens, UniProt Q9NR96).
T1 sequence (Q9NR96 26-1032): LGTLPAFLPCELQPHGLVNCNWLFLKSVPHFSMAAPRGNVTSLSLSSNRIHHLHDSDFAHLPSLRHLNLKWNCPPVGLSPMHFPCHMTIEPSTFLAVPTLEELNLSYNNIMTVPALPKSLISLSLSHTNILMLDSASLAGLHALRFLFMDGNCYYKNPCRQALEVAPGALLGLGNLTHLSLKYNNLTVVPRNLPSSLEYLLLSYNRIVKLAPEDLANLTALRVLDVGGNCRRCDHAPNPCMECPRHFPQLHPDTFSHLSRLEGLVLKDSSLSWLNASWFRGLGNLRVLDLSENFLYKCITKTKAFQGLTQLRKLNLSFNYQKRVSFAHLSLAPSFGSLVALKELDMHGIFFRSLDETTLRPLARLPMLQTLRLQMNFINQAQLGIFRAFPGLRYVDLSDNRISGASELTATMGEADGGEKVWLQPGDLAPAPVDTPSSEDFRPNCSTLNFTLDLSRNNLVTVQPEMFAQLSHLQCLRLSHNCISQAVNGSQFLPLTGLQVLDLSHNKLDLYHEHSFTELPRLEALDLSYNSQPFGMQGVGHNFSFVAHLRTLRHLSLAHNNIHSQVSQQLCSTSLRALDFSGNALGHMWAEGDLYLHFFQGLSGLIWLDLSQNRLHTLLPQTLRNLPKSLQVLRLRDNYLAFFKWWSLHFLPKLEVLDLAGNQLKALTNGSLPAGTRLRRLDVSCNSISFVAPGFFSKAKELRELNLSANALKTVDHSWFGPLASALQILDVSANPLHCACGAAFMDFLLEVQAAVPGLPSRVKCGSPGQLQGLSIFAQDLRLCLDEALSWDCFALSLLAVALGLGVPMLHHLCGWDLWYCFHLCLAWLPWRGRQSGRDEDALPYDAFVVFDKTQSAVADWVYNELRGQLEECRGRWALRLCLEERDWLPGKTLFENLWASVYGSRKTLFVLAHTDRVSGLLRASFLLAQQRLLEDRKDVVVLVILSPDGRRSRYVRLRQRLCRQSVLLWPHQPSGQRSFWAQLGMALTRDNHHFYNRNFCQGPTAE
Kind of experiment: HEK293-Blue-hTLR-9 cells assay (SEAP reporter, ODN2006 stimulation). As to conditions: HEK293-Blue-hTLR9 cells, ODN2006, 20 hrs; 0.032 is the lowest tested concentration; read-out: HEK/hTLR9 IC50. In kind it is cell-based. As to the method:
The following tests were carried out in order to determine the activity of the compounds of formula (I) or (Ia) in HEK293-Blue-hTLR-7/8/9 cells assay.
HEK293-Blue-hTLR-9 cells assay:
A stable HEK293-Blue-hTLR-9 cell line was purchased from InvivoGen (Cat.#: hkb-htlr9, San Diego, California, USA). These cells were originally designed for studying the stimulation of human TLR9 by monitoring the activation of NF-κB. A SEAP (secreted embryonic alkaline phosphatase) reporter gene was placed under the control of the IFN-β minimal promoter fused to five NF-κB and AP-1-binding sites. The SEAP was induced by activating NF-κB and AP-1 via stimulating HEK-Blue hTLR9 cells with TLR9 ligands. Therefore the reporter expression was declined by TLR9 antagonist under the stimulation of a ligand, such as ODN2006 (Cat.#: tlrl-2006-1, Invivogen, San Diego, California, USA), for incubation of 20 hrs. The cell culture supernatant SEAP reporter activity was determined using QUANTI-Blue™ kit (Cat.#: rep-qb1, Invivogen, San Diego, California, USA) at a wavelength of 640 nm, a detection medium that turns purple or blue in the presence of alkaline phosphatase.
HEK293-Blue-hTLR9 cells were incubated at a density of 250,000∼450,000 cells/mL in a volume of 170 µL in a 96-well plate in Dulbecco's Modified Eagle's medium (DMEM) containing 4.5 g/L glucose, 50 U/mL penicillin, […], […], 2 mM L-glutamine, 10% (v/v) heat-inactivated fetal bovine serum with addition of 20 µL test compound in a serial dilution in the presence of final DMSO at 1% and 10 µL of 20uM ODN2006 in above DMEM, perform incubation under 37 °C in a CO2 incubator for 20 hrs. Then 20 µL of the supernatant from each well was incubated with 180 µL Quanti-blue substrate solution at 37 °C for 2 hrs and the absorbance was read at 620∼655 nm using a spectrophotometer. The signalling pathway that TLR9 activation leads to downstream NF-κB activation has been widely accepted, and therefore similar reporter assay was modified for evaluating TLR9 antagonist.
`C[C@@H]1CN(c2ccc(C#N)c3ncsc23)C[C@H](CN2Cc3ccc(N4CCNCC4)cc3C2)O1` [Example 23, 7-[(2R,6S)-2-methyl-6-[(5-piperazin-1-ylisoindolin-2-yl)methyl]morpholin-4-yl]-1,3-benzothiazole-4-carbonitrile]: the IC50 came out at 75 nM.
In the case of `C[C@@H]1CN(c2ccc3c(c2)CN(C[C@H]2CN(c4ccc(C#N)c5nccnc45)C[C@@H](C)O2)C3)CCN1` [Example 65, 8-[(2R,6S)-2-methyl-6-[[5-[(3R)-3-methylpiperazin-1-yl]isoindolin-2-yl]methyl]morpholin-4-yl] quinoxaline-5-carbonitrile], the IC50 worked out at 59 nM.
The figure for `CCOC(=O)C1CNCCN1c1ccc2c(c1)CN(C[C@H]1CN(c3ccc(C#N)c4ncccc34)C[C@@H](C)O1)C2` (stereo partly drawn) [Example 50, Ethyl 1-[2-[[(2S,6R)-4-(8-cyano-5-quinolyl)-6-methyl-morpholin-2-yl]methyl]isoindolin-5-yl] piperazine-2-carboxylate] is 259 nM.
With `C[C@@H]1CN(c2ccc(C#N)c3nccnc23)C[C@H](CN2Cc3ccc(N4CCN(C5CC5)CC4)cc3C2)O1` [Example 35, 8-[(2S,6R)-2-[[5-(4-cyclopropylpiperazin-1-yl)isoindolin-2-yl]methyl]-6-methyl-morpholin-4-yl]quinoxaline-5-carbonitrile] the figure was 216 nM.
With `C[C@@H]1CN(c2ccc(C#N)c3ncccc23)C[C@H](CN2Cc3ccc(N4CC(N)C4)cc3C2)O1` [Example 77, 5-[(2S,6R)-2-[[5-(3-aminoazetidin-1-yl)isoindolin-2-yl]methyl]-6-methyl-morpholin-4-yl]quinoline-8-carbonitrile] the figure was 239 nM.
Take `C[C@@H]1CN(c2ccc(C#N)n3nccc23)C[C@H](CN2CCc3cc(N4CCNCC4)ccc3C2)O1` [Example 10, 4-[(2R,6S)-2-methyl-6-[(6-piperazin-1-yl-3,4-dihydro-1H-isoquinolin-2-yl)methyl]morpholin-4-yl]pyrazolo[1,5-a]pyridine-7-carbonitrile]: the IC50 worked out at 67 nM.
With `C[C@@H]1CN(c2ccc(C#N)c3ncccc23)C[C@H](CN2Cc3ccc(N4CCNC[C@@H]4CO)cc3C2)O1` [Example 82, 5-[(2S,6R)-2-[[5-[(2R)-2-(hydroxymethyl)piperazin-1-yl]isoindolin-2-yl]methyl]-6-methyl-morpholin-4-yl]quinoline-8-carbonitrile] the figure was 54 nM; with `C[C@@H]1CN(c2ccc(C#N)c3ncccc23)C[C@H](CN2Cc3ccc(N4CC5COCC(C4)N5)cc3C2)O1` [Example 72, 5-[(2R,6S)-2-methyl-6-[[5-(3-oxa-7,9-diazabicyclo[3.3.1]nonan-7-yl)isoindolin-2-yl]methyl]morpholin-4-yl]quinoline-8-carbonitrile], 66 nM.
As for `C[C@@H]1CN(c2ccc(C#N)c3ncccc23)C[C@H](CN2Cc3ccc(N4CCNC[C@H]4CO)cc3C2)O1` [Example 83, 5-[(2S,6R)-2-[[5-[(2S)-2-(hydroxymethyl)piperazin-1-yl]isoindolin-2-yl]methyl]-6-methyl-morpholin-4-yl]quinoline-8-carbonitrile], the IC50 is 63 nM.
For `C[C@@H]1CN(c2ccc(C#N)c3ncccc23)C[C@H](CN2Cc3ccc(N4CCNCC4C(F)F)cc3C2)O1` (stereo partly drawn) [Example 76, 5-[(2S,6R)-2-[[5-[2-(difluoromethyl)piperazin-1-yl]isoindolin-2-yl]methyl]-6-methyl-morpholin-4-yl]quinoline-8-carbonitrile], the IC50 was 190 nM.
For `C[C@@H]1CN(c2ccc(C#N)c3nccnc23)C[C@H](CN2Cc3ccc(N4CCN[C@@H](C)C4)cc3C2)O1` [Example 66, 8-[(2R,6S)-2-methyl-6-[[5-[(3S)-3-methylpiperazin-1-yl]isoindolin-2-yl]methyl]morpholin-4-yl]quinoxaline-5-carbonitrile], the IC50 was 83 nM.
`C[C@@H]1CN(c2ccc(C#N)n3nccc23)C[C@H](CN2Cc3ccc(OCCN(C)C)cc3C2)O1` [Example 28, 4-[(2S,6R)-2-[[5-[2-(dimethylamino)ethoxy]isoindolin-2-yl]methyl]-6-methyl-morpholin-4-yl]pyrazolo[1,5-a]pyridine-7-carbonitrile]: the IC50 was found to be 93 nM.
On to `C[C@@H]1CN(c2ccc(C#N)n3ncc(F)c23)C[C@H](CN2CCc3cc(N4CCNCC4)ccc3C2)O1` [Example 14, 3-fluoro-4-[(2R,6S)-2-methyl-6-[(6-piperazin-1-yl-3,4-dihydro-1H-isoquinolin-2-yl)methyl]morpholin-4-yl]pyrazolo[1,5-a]pyridine-7-carbonitrile], for which the IC50 was found to be 117 nM.
The figure for `C[C@@H]1CN(c2ccc(C#N)n3nccc23)C[C@H](CN2Cc3ccncc3C2)O1` [Example R2, 4-[(2S,6R)-2-(1,3-dihydropyrrolo[3,4-c]pyridin-2-ylmethy1)-6-methyl-morpholin-4-yl]pyrazolo[1,5-a]pyridine-7-carbonitrile, reference compound] is 47000 nM; for `C[C@@H]1CN(c2ccc(C#N)c3ncccc23)C[C@H](CN2Cc3ccc(CN4CCCCC4)cc3C2)O1` [Example 74, 5-[(2R,6S)-2-methyl-6-[[5-(1-piperidylmethyl)isoindolin-2-yl]methyl]morpholin-4-yl]quinoline-8-carbonitrile] it is 73 nM; for `C[C@@H]1CN(c2ccc(C#N)c3nccnc23)C[C@H](CN2Cc3ccc(N4CCNCC4)cc3C2)O1` [Example 12, 8-[(2R,6S)-2-methyl-6-[(5-piperazin-1-ylisoindolin-2-yl)methyl]morpholin-4-yl]quinoxaline-5-carbonitrile] it is 52 nM.
With `CC1CNCCN1c1ccc2c(c1)CN(C[C@H]1CN(c3ccc(C#N)c4ncccc34)C[C@@H](C)O1)C2` (stereo partly drawn) [Example 78, 5-[(2R,6S)-2-methyl-6-[[5-(2-methylpiperazin-1-yl)isoindolin-2-yl]methyl]morpholin-4-yl] quinoline-8-carbonitrile] the figure was 163 nM; with `C[C@@H]1CN(c2ccc(C#N)c3ncsc23)C[C@H](CN2CCc3cc(N4CCNCC4)ccc3C2)O1` [Example 24, 7-[(2R,6S)-2-methyl-6-[(6-piperazin-1-yl-3,4-dihydro-1H-isoquinolin-2-yl)methyl]morpholin-4-yl]-1,3-benzothiazole-4-carbonitrile], 81 nM.
Regarding `C[C@@H]1CN(c2ccc3c(c2)CN(C[C@H]2CN(c4ccc(C#N)c5ncccc45)C[C@@H](C)O2)C3)C[C@H](C)N1` [Example 71, 5-[(2R,6S)-2-methyl-6-[[5-[(3R,5S)-3,5-dimethylpiperazin-1-yl]isoindolin-2-yl]methyl]morpholin-4-yl]quinoline-8-carbonitrile], the IC50 is 73 nM.
For the compound `C[C@@H]1CN(c2ccc(C#N)c3ncccc23)C[C@H](CN2Cc3ccc(N4CC5(CNC5)C4)cc3C2)O1` [Example 47, 5-[(2S,6R)-2-[[5-(2,6-diazaspiro[3.3]heptan-2-yl)isoindolin-2-yl]methyl]-6-methyl-morpholin-4-yl]quinoline-8-carbonitrile], the IC50 stood at 83 nM.
